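GI50: concentration for 50% inhibition of growth. TGI denotes the concentration required for complete inhibition of growth.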
Key:
Test in all cases: DTP human tumour cell line panel, 384-well format
[1] = tested on: NCI-H226 lung
[2] = tested on: SK-MEL-28 melanoma
[3] = tested on: HCC-2998 colon
[4] = tested on: UO-31 renal
[5] = tested on: NCI-H322M lung
[6] = tested on: U251 glioblastoma
[7] = tested on: MCF7 breast
[8] = tested on: T-47D breast
[9] = tested on: NCI-H460 NSCLC
[10] = tested on: IGROV1 ovarian
[11] = tested on: SR leukemia
[12] = tested on: HOP-62 NSCLC
[13] = tested on: SK-MEL-2 melanoma
[14] = tested on: DU-145 prostate
[15] = tested on: BT-549 breast
[16] = tested on: SK-MEL-5 melanoma
[17] = tested on: MDA-MB-435 melanoma
[18] = tested on: ACHN renal
[19] = tested on: MDA-MB-231 breast
[20] = tested on: CCRF-CEM leukemia
[21] = tested on: OVCAR-5 ovarian
[22] = tested on: SK-OV-3 ovarian
[23] = tested on: SN12C renal
[24] = tested on: SF-295 CNS
[25] = tested on: RPMI-8226 leukemia
[26] = tested on: PC-3 prostate
[27] = tested on: 786-0 renal
[28] = tested on: MDA-MB-468 breast
[29] = tested on: UACC-257 melanoma
[30] = tested on: HL-60(TB) leukemia
[31] = tested on: SF-268 CNS
[32] = tested on: HT29 colon
[33] = tested on: KM12 colon
[34] = tested on: NCI-H23 lung
[35] = tested on: NCI/ADR-RES ovarian
[36] = tested on: TK-10 renal
[37] = tested on: K-562 leukemia
[38] = tested on: COLO 205 colon
[39] = tested on: HCT-116 colon
[40] = tested on: HOP-92 NSCLC
[41] = tested on: OVCAR-8 ovarian
[42] = tested on: MALME-3M melanoma
[43] = tested on: LOX IMVI melanoma
[44] = tested on: A549 NSCLC
[45] = tested on: UACC-62 melanoma
[46] = tested on: SNB-19 CNS
[47] = tested on: M14 melanoma
[48] = tested on: NCI-H522 lung
[49] = tested on: OVCAR-3 ovarian
[50] = tested on: RXF 393 renal
[51] = tested on: CAKI-1 renal
[52] = tested on: MOLT-4 leukemia
[53] = tested on: HCT-15 colon
[54] = tested on: SF-539 CNS
[55] = tested on: OVCAR-4 ovarian
[56] = tested on: A498 renal
[57] = tested on: SW-620 colon

## CC1(C)CCC(c2ccc(Cl)cc2)=C(CN2CCN(c3ccc(C(=O)NS(=O)(=O)c4ccc(N[C@H](CCN5CCOCC5)CSc5ccccc5)c(S(=O)(=O)C(F)(F)F)c4)cc3)CC2)C1
[1]
  GI50: 1100 nM
  TGI: 2310 nM
[2]
  GI50: 1930 nM
  TGI: 3390 nM
[3]
  GI50: 150 nM
  TGI: 765 nM
[4]
  GI50: 1370 nM
  TGI: 2670 nM
[5]
  GI50: 1880 nM
  TGI: 3670 nM
[6]
  GI50: 1910 nM
  TGI: 3390 nM
[7]
  GI50: 1880 nM
  TGI: 4580 nM
[8]
  GI50: 1870 nM
  TGI: 3520 nM
[9]
  GI50: 1840 nM
  TGI: 3280 nM
[10]
  GI50: 1560 nM
  TGI: 2990 nM
[11]
  GI50: 365 nM
  TGI: 2040 nM
[12]
  GI50: 2030 nM
  TGI: 3490 nM
[13]
  GI50: 1230 nM
  TGI: 2480 nM
[14]
  GI50: 2300 nM
  TGI: 4790 nM
[15]
  GI50: 1810 nM
  TGI: 3230 nM
[16]
  GI50: 1660 nM
  TGI: 3020 nM
[17]
  GI50: 1940 nM
  TGI: 3390 nM
[18]
  GI50: 1800 nM
  TGI: 3200 nM
[19]
  GI50: 316 nM
  TGI: 1170 nM
[20]
  GI50: 69.8 nM
  TGI: 198 nM
[21]
  GI50: 1460 nM
  TGI: 2840 nM
[22]
  GI50: 1960 nM
  TGI: 3480 nM
[23]
  GI50: 2130 nM
  TGI: 3590 nM
[24]
  GI50: 1750 nM
  TGI: 3140 nM
[25]
  GI50: 82.1 nM
  TGI: 207 nM
[26]
  GI50: 1740 nM
  TGI: 3120 nM
[27]
  GI50: 1620 nM
  TGI: 3030 nM
[28]
  GI50: 1590 nM
  TGI: 3080 nM
[29]
  GI50: 1590 nM
  TGI: 3010 nM
[30]
  GI50: 195 nM
  TGI: 893 nM
[31]
  GI50: 1880 nM
  TGI: 3360 nM
[32]
  GI50: 1840 nM
  TGI: 3270 nM
[33]
  GI50: 1760 nM
  TGI: 3230 nM
[34]
  GI50: 1730 nM
  TGI: 3130 nM
[35]
  GI50: 2800 nM
  TGI: 7690 nM
[36]
  GI50: 1660 nM
  TGI: 3050 nM
[37]
  GI50: 1940 nM
  TGI: 3350 nM
[38]
  GI50: 1250 nM
  TGI: 2510 nM
[39]
  GI50: 1600 nM
  TGI: 2990 nM
[40]
  GI50: 135 nM
  TGI: 771 nM
[41]
  GI50: 1750 nM
  TGI: 3140 nM
[42]
  GI50: 1870 nM
  TGI: 3270 nM
[43]
  GI50: 1950 nM
  TGI: 3370 nM
[44]
  GI50: 1630 nM
  TGI: 3120 nM
[45]
  GI50: 1800 nM
  TGI: 3190 nM
[46]
  GI50: 2170 nM
  TGI: 4020 nM
[47]
  GI50: 1830 nM
  TGI: 3240 nM
[48]
  GI50: 1850 nM
  TGI: 3650 nM
[49]
  GI50: 1560 nM
  TGI: 2900 nM
[50]
  GI50: 17.4 nM
  TGI: 325 nM
[51]
  GI50: 2020 nM
  TGI: 3460 nM
[52]
  GI50: 22.1 nM
  TGI: 64 nM
[53]
  GI50: 1750 nM
  TGI: 3180 nM
[54]
  GI50: 1720 nM
  TGI: 3110 nM
[55]
  GI50: 1270 nM
  TGI: 2790 nM
[56]
  GI50: 1160 nM
  TGI: 2390 nM
[57]
  GI50: 940 nM
  TGI: 2120 nM

Reference: PubChem BioAssay (NCI)
